Measured values: patent publication US20250327032A1, “AGENT FOR AVOIDING IMMUNE RESPONSE OF TRANSGENIC CELLS” (HYPERION DRUG DISCOVERY CO., LTD., priority 2021, published 2025)

Legend:
[1] = test system: human mesenchymal stem cells; experiment: Introduction of GFP viral vector (polybrene method), yield of GFP-positive cells; format: cell-based; conditions: JSH-23 1 μM; GFP viral vector MOI 10, polybrene 5 μg/mL
Experimental: Human mesenchymal stem cells were seeded in a 6-well plate to be about 2,000 cells/cm^2. Human myoblasts were seeded in another 6-well plate to be about 2,000 cells/cm^2. As a culture solution, a basal medium for each cell supplemented with JSH-23 was used. JSH-23 was added at 1 μM to the culture solution used for human mesenchymal stem cells, and at 0.1 μM to the culture solution used for human myoblasts. As a control, a basal medium, i.e., αMEM (+10% serum) for human mesenchymal stem cells and MCDB131 (+10% serum) for human myoblasts, to which 0.1% (v/v) DMSO instead of JSH-23 was added was used as a culture solution.
A mixed solution was prepared by mixing GFP viral vector and a polybrene solution. The amount of GFP viral vector was prepared to be MOI of 10, and the amount of polybrene was prepared to be 5 μg/mL. […]
(§1) Four days after the addition of the virus-free culture solution, the cells were detached with a cell detachment solution and centrifuged at 600×g for 5 minutes using a centrifuge, to collect the cells. The collected cells were counted using a hemocytometer. Furthermore, the GFP-positive percentage of the collected cells was measured using a flow cytometer. The yield of the number of GFP-positive cells was calculated from the number of cells counted and the GFP-positive percentage.

[2] = test system: human mesenchymal stem cells; experiment: Introduction of increased amount of GFP mRNA (20 pg/cell), yield of GFP-positive cells; format: cell-based; conditions: JSH-23 1 μM, versus 20 pg/cell without JSH-23
Experimental: Human mesenchymal stem cells were seeded in a 6-well plate to be about 10,000 cells/cm^2. As a culture solution, αMEM (+10% serum) supplemented with 1 μM of JSH-23 or αMEM (+10% serum) supplemented with 0.1% (v/v) DMSO instead of JSH-23 was used.
A lipofection solution was prepared by adding Lipofectamine RNAiMAX and fluorescent protein GFP mRNA to OptiMEM. It was prepared so that the amount of mRNA was 10 pg/cell or 20 pg/cell. The prepared lipofection solution was mixed well according to the manufacturer's recommended protocol and allowed to stand at room temperature for about 15 minutes.
Next, a lipofection solution prepared so that the amount of mRNA was 20 pg/cell was added to a plate that used, as a culture solution, αMEM (+10% serum) supplemented with DMSO or JSH-23, respectively. […]
as §1, with “Twenty-four hours” for “Four days”, “final introduction” for “addition”, “genes,” for “the virus-free culture solution,”, “solution,” for “solution and”

IFN-α = IFN-α expression level (qPCR) after introduction of GFP-tagged CAR-T plasmid; format: cell-based, human; conditions: Jurkat E6.1; JSH-23 0.1 μM; compared to CAR-T plasmid introduced without JSH-23
[3] = test system: human mesenchymal stem cells; experiment: Introduction of GFP mRNA with NFκB inhibitors other than nuclear translocation inhibitors (Example 12), yield of GFP-positive cells; format: cell-based; conditions: JSH-23 1 μM; GFP mRNA 10 pg/cell
Experimental: Improvement in the yield of transgenic cells when using an NFκB inhibitor other than the NFκB nuclear translocation inhibitor of the present invention was investigated. As the NFκB inhibitors, BAY11 (IKK inhibitor), dexamethasone (IκB degradation inhibitor), and 6-amino-4-(4-phenoxyphenethylamino)quinazoline (p65 acetylation inhibitor) were used to perform introduction of genes. For comparison, introduction of gene was performed under the same conditions using JSH-23, an NFκB nuclear translocation inhibitor, instead of the above-mentioned NFκB inhibitors. The specific procedure is as follows.
Human mesenchymal stem cells were seeded in a 6-well plate to be about 10,000 cells/cm^2. […]
as §1, with “Twenty-four hours” for “Four days”, “final introduction” for “addition”, “genes,” for “the virus-free culture solution,”, “solution,” for “solution and”

Cc1ccc(NCCCc2ccccc2)c(N)c1 [JSH-23]
number of GFP-positive cells relative to control [1]: increased | number of GFP-positive cells [2]: increased | increase in the expression level of IFN-α (IFN-α): reduced | number of GFP-positive (transgenic) cells relative to control (set to 1) [3]: ≥ 7 times
